Data: US20230303540A1 (Merck Sharp & Dohme LLC, priority 2020, published 2023)

Molecular target: GST-tagged truncated human mutant G2019S LRRK2 (Homo sapiens, UniProt Q5S007, G2019S)
Assay: LRRK2 G2019S Km ATP LanthaScreen assay
Format: biochemical
Details: 134 μM ATP (Km ATP), LRRKtide substrate, mean IC50 values; read-out: LRRK2 pIC50 (converted)
Procedure: Unless otherwise noted, all reactions are magnetically stirred. Unless otherwise noted, when diethyl ether is used in the experiments described below, it is Fisher ACS certified material and is stabilized with BHT. Unless otherwise noted, “concentrated” and/or “solvent removed under reduced pressure” means evaporating the solvent from a solution or mixture using a rotary evaporator or vacuum pump. Unless otherwise noted, flash chromatography is carried out on a Teledyne Isco (Lincoln, NE), Analogix (Burlington, WI), or Biotage (Stockholm, SWE) automated chromatography system using a commercially available cartridge as the column. Columns may be purchased from Teledyne Isco, Analogix, Biotage, Varian (Palo Alto, CA), or Supelco (Bellefonte, PA) and are usually filled with silica gel as the stationary phase. Reverse phase prep-HPLC conditions, where used, can be found at the end of each experimental section. Aqueous solutions were concentrated on a Genevac (Ipswich, ENG) or by freeze-drying/lyophilization. Unless otherwise noted, all LRRK2 pIC50 data presented in tables refers to the LRRK2 G2019S Km ATP LanthaScreen™ assay (Life Technologies Corp., Carlsbad, CA) that is described in the Biological Assay section.
The IC50 values reported herein were measured as follows.
Biological Assay: LRRK2 Km ATP LanthaScreen™ Assay
The LRRK2 kinase activity reported herein as IC50 values was determined with LanthaScreen™ technology from Life Technologies Corporation (Carlsbad, CA) using GST-tagged truncated human mutant G2019S LRRK2 in the presence of the fluorescein-labeled peptide substrate LRRKtide, also from Life Technologies. The data presented for the Km ATP LanthaScreen™ Assay represents mean IC50 values based on several test results and may have reasonable deviations depending on the specific conditions and reagents used. Assays were performed in the presence of 134 μM ATP (Km ATP). Upon completion, the assay was stopped and phosphorylated substrate detected with a terbium (Tb)-labeled anti-pERM antibody (cat. no. PV4898). The compound dose response was prepared by diluting a 10 mM stock of compound to a maximum concentration of 9.99 μM in 100% dimethylsulfoxide followed by custom fold serial dilution in dimethylsulfoxide nine times. Twenty nanoliters of each dilution was spotted via a Labcyte Echo onto a 384-well black-sided plate (Corning 3575) followed by 15 μl of a 1.25 nM enzyme solution in 1× assay buffer (50 mM Tris pH 8.5, 10 mM MgCl2, 0.01% Brij-35, 1 mM EGTA, 2 mM dithiothreitol, 0.05 mM sodium orthovanadate). Following a 15-minute incubation at room temperature, the kinase reaction was started with the addition of 5 μl of 400 nM fluorescein-labeled LRRKtide peptide substrate and 134 μM ATP solution in 1× assay buffer. The reaction was allowed to progress at ambient temperature for 90 minutes. The reaction was then stopped by the addition of 20 μl of TR-FRET Dilution Buffer (Life Technologies, Carlsbad, CA) containing 2 nM Tb-labeled anti-phospho LRRKtide antibody and 10 mM EDTA (Life Technologies, Carlsbad, CA). After an incubation of 1 hour at room temperature, the plate was read on an EnVision multimode plate reader (Perkin Elmer, Waltham, MA) with an excitation wavelength of 337 nm (Laser) and a reading emission at both 520 and 495 nm. Compound IC50s were interpolated from nonlinear regression best fits of the log of the final compound concentration, plotted as a function of the 520/495-nm emission ratio using Activity base. Abase uses a 4 parameter (4P) logistic fit based on the Levenberg-Marquardt algorithm.

Structure (SMILES)	IC50 [nM]
CC1(N2CCN(c3cc4nc(Nc5cnn(CC(F)(F)F)c5)ncc4cc3Cl)CC2)COC1 [Ex-4.19, 6-chloro-7-[4-(3-methyloxetan-3-yl)piperazin-1-yl]-N-[1-(2,2,2-trifluoroethyl)-1H-pyrazol-4-yl]quinazolin-2-amine]	3.03
Cc1c(Nc2ncc3cc(Cl)c(N4CCN(C5(C)COC5)CC4)cc3n2)cnn1CC(C)(C)O [Ex-4.55, 1-[4-({6-chloro-7-[4-(3-methyloxetan-3-yl)piperazin-1-yl]quinazolin-2-yl}amino)-5-methyl-1H-pyrazol-1-yl]-2-methylpropan-2-ol]	11.1
CCn1ncc(Nc2ncc3ccc(N4CCC4C)cc3n2)c1C (single isomer, unassigned) [Ex-1.11, (S) or (R) N-(1-ethyl-5-methyl-1H-pyrazol-4-yl)-7-(2-methylazetidin-1-yl)quinazolin-2-amine]	33.2
OC1CCN(c2cc3nc(Nc4cnn(C5CC5)c4Cl)ncc3cc2Cl)CC1 [Ex-3.8, 1-{6-chloro-2-[(5-chloro-1-cyclopropyl-1H-pyrazol-4-yl)amino]quinazolin-7-yl}piperidin-4-ol]	2.53
CCn1ncc(Nc2ncc3ccc(N4C(=O)CCC4C)cc3n2)c1C (single isomer, unassigned) [Ex-7.18, (R) or (S) 1-{2-[(1-ethyl-5-methyl-1H-pyrazol-4-yl)amino]quinazolin-7-yl}-5-methylpyrrolidin-2-one]	8.73
Clc1cc2cnc(Nc3cnn(C4CC4)c3Cl)nc2cc1N1C[C@@H]2C[C@H]1CN2C1COC1 [Ex-1.33, 6-chloro-N-(5-chloro-1-cyclopropyl-1H-pyrazol-4-yl)-7-[(1S,4S)-5-(oxetan-3-yl)-2,5-diazabicyclo[2.2.1]heptan-2-yl]quinazolin-2-amine]	26.1
Cc1cc2cnc(Nc3cnn(C)c3C)nc2cc1N1CCN(C2(C)COCC2O)CC1 (single isomer, unassigned) [Ex-2.2, (3S,4S or 3R,4R)-4-(4-{2-[(1,5-dimethyl-1H-pyrazol-4-yl)amino]-6-methylquinazolin-7-yl}piperazin-1-yl)-4-methyloxolane-3-ol]	36
Cc1c(Nc2ncc3cc(Cl)c(N4CCN(C5COCC5O)CC4)nc3n2)cnn1C1CC1 (single isomer, unassigned) [Ex-16.4, (3S,4S) or (3R,4R)-4-(4-{6-chloro-2-[(1-cyclopropyl-5-methyl-1H-pyrazol-4-yl)amino]pyrido[2,3-d]pyrimidin-7-yl}piperazin-1-yl)oxolan-3-ol]	83.8
Cc1c(Nc2ncc3cc(Cl)c(N4CCC(C)(O)C(C)C4)cc3n2)cnn1C1CC1 (single isomer, unassigned) [Ex-3.48, (3R,4R) or (3S,4S) or (3R,4S) or (3S,4R) 1-{6-chloro-2-[(1-cyclopropyl-5-methyl-1H-pyrazol-4-yl)amino]quinazolin-7-yl}-3,4-dimethylpiperidin-4-ol]	1.46
CN1CCC2(CCN(c3cc4nc(Nc5cnn(C6(C)CC6)c5Cl)ncc4cc3Cl)C2)C1 (stereo not drawn) [Ex-4.42, 6-chloro-N-[5-chloro-1-(1-methylcyclopropyl)-1H-pyrazol-4-yl]-7-(7-methyl-2,7-diazaspiro[4.4]nonan-2-yl)quinazolin-2-amine]	6.55
CC1(N2CCN(c3cc4nc(Nc5cnn(C6CC6(F)F)c5Cl)ncc4cc3Cl)CC2)COCC1O (single isomer, unassigned) [Ex-6.34, (3S,4S) or (3R,4R) 4-[4-(6-chloro-2-{[5-chloro-1-(2,2-(R) or (S)difluorocyclopropyl)-1H-pyrazol-4-yl]amino}quinazolin-7-yl)piperazin-1-yl]-4-methyloxolan-3-ol]	10.6
C[C@H]1COC(=O)N1c1ccc2cnc(Nc3cn(C)nc3C(F)F)nc2c1 [Ex-8.12, (4S)-3-(2-{[3-(difluoromethyl)-1-methyl-1H-pyrazol-4-yl]amino}quinazolin-7-yl)-4-methyl-1,3-oxazolidin-2-one]	1.63
Cc1c(Nc2ncc3cc(Cl)c(N4CCC(C)(O)C(C)C4)cc3n2)cnn1C1CC1 (single isomer, unassigned) [Ex-3.50, (3R,4R) or (3S,4S) or (3R,4S) or (3S,4R) 1-{6-chloro-2-[(1-cyclopropyl-5-methyl-1H-pyrazol-4-yl)amino]quinazolin-7-yl}-3,4-dimethylpiperidin-4-ol]	0.821
Cc1c(Nc2ncc3cc(Cl)c(N4CCN(C5COCC5O)CC4)cc3n2)cnn1CC(F)(F)F (single isomer, unassigned) [Ex-6.37, (3S,4S) or (3R,4R) 4-[4-(6-chloro-2-{[5-methyl-1-(2,2,2-trifluoroethyl)-1H-pyrazol-4-yl]amino}quinazolin-7-yl)piperazin-1-yl]oxolan-3-ol]	6.35
CC(C)c1cc(Nc2ncc3ccc(N4C(=O)OC[C@@H]4C)cc3n2)ns1 [Ex-8.9, (4S)-4-methyl-3-(2-{[5-(propan-2-yl)-1,2-thiazol-3-yl]amino}quinazolin-7-yl)-1,3-oxazolidin-2-one]	8.03
OC1COCC1N1CCN(c2cc3nc(Nc4cnn(C5CC5(F)F)c4Cl)ncc3cc2Cl)CC1 (single isomer, unassigned) [Ex-6.27, (3S,4S) or (3R,4R) 4-[4-(6-chloro-2-{[5-chloro-1-(2,2-(R) or (S)difluorocyclopropyl)-1H-pyrazol-4-yl]amino}quinazolin-7-yl)piperazin-1-yl]oxolan-3-ol]	0.27
Cc1c(Nc2ncc3cc(Cl)c(N4CCN(C5(C)COCC5O)CC4)cc3n2)cnn1C (single isomer, unassigned) [Ex-3.43, (3R,4R) or (3S,4S) 4-(4-{6-chloro-2-[(1,5-dimethyl-1H-pyrazol-4-yl)amino]quinazolin-7-yl}piperazin-1-yl)-4-methyloxolan-3-ol]	0.438
Cc1c(Nc2ncc3cc(Cl)c(N4CCN(C5COC(C)(C)C5)CC4)cc3n2)cnn1C1CC1 (single isomer, unassigned) [Ex-12.1]	2.93
CCn1ncc(Nc2ncc3cc(Cl)c(N4CCC(C)(O)CC4)cc3n2)c1F [Ex-6.3, 1-{6-chloro-2-[(1-ethyl-5-fluoro-1H-pyrazol-4-yl)amino]quinazolin-7-yl}-4-methylpiperidin-4-ol]	10.3
Clc1cc2cnc(Nc3cnn(C45CC(C4)C5)c3Cl)nc2cc1N1CCNCC1 [Ex-12.10, N-(1-(bicyclo[1.1.1]pentan-1-yl)-5-chloro-1H-pyrazol-4-yl)-6-chloro-7-(piperazin-1-yl)quinazolin-2-amine]	2.13
CCn1ncc(Nc2ncc3ccc(N4CCCC4C)cc3n2)c1C (single isomer, unassigned) [Ex-1.9, (S) or (R) N-(1-ethyl-5-methyl-1H-pyrazol-4-yl)-7-(2-methylpyrrolidin-1-yl)quinazolin-2-amine]	36.1
CC1CN(C2CCN(c3cc4nc(Nc5cnn(C6(C)CC6)c5Cl)ncc4cc3Cl)CC2)C1 [Ex-4.43, 6-chloro-N-[5-chloro-1-(1-methylcyclopropyl)-1H-pyrazol-4-yl]-7-[4-(3-methylazetidin-1-yl)piperidin-1-yl]quinazolin-2-amine]	3.52
CC(C)n1ncc(Nc2ncc3cc(Cl)c(N4CCN(C5(C)COCC5O)CC4)cc3n2)c1C(F)F (single isomer, unassigned) [Ex-6.50, (3S,4S) or (3R,4R) 4-(4-(6-chloro-2-((5-(difluoromethyl)-1-isopropyl-1H-pyrazol-4-yl)amino)quinazolin-7-yl)piperazin-1-yl)-4-methyltetrahydrofuran-3-ol]	0.08
Cc1nn(C2C[C@@H](C)O[C@@H](C)C2)cc1Nc1ncc2ccc(N3C(=O)OC[C@@H]3C)cc2n1 (stereo partly drawn) [Ex-7.5, (4S)-3-[2-({1-[(2R,6S)-2,6-dimethyloxan-4-yl]-3-methyl-1H-pyrazol-4-yl}amino)quinazolin-7-yl]-4-methyl-1,3-oxazolidin-2-one]	33.7
